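Five concentrations, 48 hours, 96-well plates. At the GI50, growth is halved. TGI denotes the concentration required for complete inhibition of growth.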
What was measured:
Experiment in all cases: DTP human tumour cell line panel, 48 h
SF-268 CNS = system: SF-268 CNS
SNB-19 CNS = system: SNB-19 CNS
SK-OV-3 ovarian = system: SK-OV-3 ovarian
EKVX NSCLC = system: EKVX NSCLC
MDA-MB-435 = system: MDA-MB-435
SNB-75 CNS = system: SNB-75 CNS
TK-10 renal = system: TK-10 renal
ACHN renal = system: ACHN renal
NCI-H226 lung = system: NCI-H226 lung
SK-MEL-5 melanoma = system: SK-MEL-5 melanoma
SF-539 CNS = system: SF-539 CNS
M14 melanoma = system: M14 melanoma
HT29 colon = system: HT29 colon
HOP-92 NSCLC = system: HOP-92 NSCLC
IGROV1 ovarian = system: IGROV1 ovarian
MCF7 breast = system: MCF7 breast
T-47D breast = system: T-47D breast
HCT-15 colon = system: HCT-15 colon
NCI/ADR-RES ovarian = system: NCI/ADR-RES ovarian
CAKI-1 renal = system: CAKI-1 renal
RXF 393 renal = system: RXF 393 renal
UACC-257 melanoma = system: UACC-257 melanoma
PC-3 prostate = system: PC-3 prostate
K-562 leukemia = system: K-562 leukemia
SF-295 CNS = system: SF-295 CNS
BT-549 breast = system: BT-549 breast
DU-145 prostate = system: DU-145 prostate
HL-60(TB) leukemia = system: HL-60(TB) leukemia
UO-31 renal = system: UO-31 renal
MALME-3M melanoma = system: MALME-3M melanoma
NCI-H23 lung = system: NCI-H23 lung
SK-MEL-28 melanoma = system: SK-MEL-28 melanoma
UACC-62 melanoma = system: UACC-62 melanoma
HOP-62 NSCLC = system: HOP-62 NSCLC
A498 renal = system: A498 renal
HS 578T breast = system: HS 578T breast
SK-MEL-2 melanoma = system: SK-MEL-2 melanoma
HCC-2998 colon = system: HCC-2998 colon
LOX IMVI melanoma = system: LOX IMVI melanoma
NCI-H522 lung = system: NCI-H522 lung
OVCAR-5 ovarian = system: OVCAR-5 ovarian
OVCAR-4 ovarian = system: OVCAR-4 ovarian
SW-620 colon = system: SW-620 colon
COLO 205 colon = system: COLO 205 colon
NCI-H460 lung = system: NCI-H460 lung
U251 CNS = system: U251 CNS
HCT-116 colon = system: HCT-116 colon
RPMI-8226 leukemia = system: RPMI-8226 leukemia
SR leukemia = system: SR leukemia
KM12 colon = system: KM12 colon
786-0 renal = system: 786-0 renal
CCRF-CEM leukemia = system: CCRF-CEM leukemia
A549 NSCLC = system: A549 NSCLC
OVCAR-3 ovarian = system: OVCAR-3 ovarian
SN12C renal = system: SN12C renal
MOLT-4 leukemia = system: MOLT-4 leukemia
MDA-MB-231 breast = system: MDA-MB-231 breast
OVCAR-8 ovarian = system: OVCAR-8 ovarian

## O=C(CSCC(=O)N/N=C/c1cccc(C(F)(F)F)c1)N/N=C/c1cccc(C(F)(F)F)c1
SF-268 CNS
  TGI: > 100 µM
SNB-19 CNS
  TGI: > 100 µM
SK-OV-3 ovarian
  TGI: > 100 µM
EKVX NSCLC
  TGI: > 100 µM
MDA-MB-435
  TGI: > 100 µM
SNB-75 CNS
  TGI: > 100 µM
TK-10 renal
  TGI: > 100 µM
ACHN renal
  TGI: > 100 µM
NCI-H226 lung
  TGI: > 100 µM
SK-MEL-5 melanoma
  TGI: > 100 µM
SF-539 CNS
  TGI: > 100 µM
M14 melanoma
  TGI: > 100 µM
HT29 colon
  TGI: > 100 µM
HOP-92 NSCLC
  TGI: > 100 µM
IGROV1 ovarian
  TGI: > 100 µM
MCF7 breast
  TGI: > 100 µM
T-47D breast
  TGI: > 100 µM
HCT-15 colon
  TGI: > 100 µM
NCI/ADR-RES ovarian
  TGI: > 100 µM
CAKI-1 renal
  TGI: > 100 µM
RXF 393 renal
  TGI: > 100 µM
UACC-257 melanoma
  TGI: > 100 µM
PC-3 prostate
  TGI: > 100 µM
K-562 leukemia
  TGI: > 100 µM
SF-295 CNS
  TGI: > 100 µM
BT-549 breast
  TGI: > 100 µM
DU-145 prostate
  TGI: > 100 µM
HL-60(TB) leukemia
  TGI: > 100 µM
UO-31 renal
  TGI: > 100 µM
MALME-3M melanoma
  TGI: > 100 µM
NCI-H23 lung
  TGI: > 100 µM
SK-MEL-28 melanoma
  TGI: > 100 µM
UACC-62 melanoma
  TGI: > 100 µM
HOP-62 NSCLC
  TGI: > 100 µM
A498 renal
  TGI: > 100 µM
HS 578T breast
  TGI: > 100 µM
SK-MEL-2 melanoma
  TGI: > 100 µM
HCC-2998 colon
  TGI: > 100 µM
LOX IMVI melanoma
  TGI: > 100 µM
NCI-H522 lung
  TGI: > 100 µM
OVCAR-5 ovarian
  TGI: > 100 µM

## C=C1C(=O)O[C@H]2[C@H]1CC/C(COC(=O)NCc1[nH]nc3ccccc13)=C\CC[C@@]1(C)O[C@@H]21
SF-268 CNS
  GI50: 5.52 µM
  TGI: 20 µM
SNB-19 CNS
  GI50: 5.31 µM
  TGI: 19.6 µM
SK-OV-3 ovarian
  GI50: 11.8 µM
  TGI: 24.4 µM
EKVX NSCLC
  GI50: 3.1 µM
  TGI: 13.4 µM
MDA-MB-435
  GI50: 1.64 µM
  TGI: 4.42 µM
SNB-75 CNS
  GI50: 5.06 µM
  TGI: 21.1 µM
TK-10 renal
  GI50: 1.82 µM
  TGI: 3.49 µM
ACHN renal
  GI50: 1.11 µM
  TGI: 2.63 µM
OVCAR-4 ovarian
  GI50: 4.06 µM
  TGI: 17.5 µM
NCI-H226 lung
  GI50: 16.3 µM
  TGI: 33.7 µM
SK-MEL-5 melanoma
  GI50: 2.73 µM
  TGI: 10.5 µM
SW-620 colon
  GI50: 0.596 µM
  TGI: 2.28 µM
COLO 205 colon
  GI50: 1.27 µM
  TGI: 2.93 µM
SF-539 CNS
  GI50: 1.82 µM
  TGI: 4.72 µM
M14 melanoma
  GI50: 2.03 µM
  TGI: 5.49 µM
NCI-H460 lung
  GI50: 3.9 µM
  TGI: 15.5 µM
U251 CNS
  GI50: 3.16 µM
  TGI: 13.7 µM
HT29 colon
  GI50: 1.18 µM
  TGI: 2.69 µM
HOP-92 NSCLC
  GI50: 2.03 µM
  TGI: 4.11 µM
HCT-116 colon
  GI50: 0.839 µM
  TGI: 2.53 µM
RPMI-8226 leukemia
  GI50: 0.437 µM
  TGI: 2.98 µM
IGROV1 ovarian
  GI50: 2.24 µM
  TGI: 9.26 µM
SR leukemia
  GI50: 0.27 µM
  TGI: 2.89 µM
KM12 colon
  GI50: 4.25 µM
  TGI: 18.1 µM
786-0 renal
  GI50: 1.72 µM
  TGI: 3.63 µM
CCRF-CEM leukemia
  GI50: 0.337 µM
  TGI: 2.51 µM
T-47D breast
  GI50: 1.74 µM
  TGI: 5.43 µM
HCT-15 colon
  GI50: 1.07 µM
  TGI: 2.64 µM
A549 NSCLC
  GI50: 8.61 µM
  TGI: 25.7 µM
NCI/ADR-RES ovarian
  GI50: 6.22 µM
  TGI: 22.5 µM
OVCAR-3 ovarian
  GI50: 1.06 µM
  TGI: 2.38 µM
CAKI-1 renal
  GI50: 1.37 µM
  TGI: 3.91 µM
RXF 393 renal
  GI50: 0.719 µM
  TGI: 2.23 µM
UACC-257 melanoma
  GI50: 2.13 µM
  TGI: 5.01 µM
PC-3 prostate
  GI50: 1.67 µM
  TGI: 5.79 µM
K-562 leukemia
  GI50: 0.473 µM
  TGI: 17.5 µM
SF-295 CNS
  GI50: 7.24 µM
  TGI: 21.8 µM
BT-549 breast
  GI50: 2.86 µM
  TGI: 8.93 µM
DU-145 prostate
  GI50: 1.24 µM
  TGI: 3.03 µM
HL-60(TB) leukemia
  GI50: 0.458 µM
  TGI: 2.73 µM
UO-31 renal
  GI50: 1.51 µM
  TGI: 2.95 µM
MALME-3M melanoma
  GI50: 2.06 µM
  TGI: 4.24 µM
NCI-H23 lung
  GI50: 2.19 µM
  TGI: 7.24 µM
SK-MEL-28 melanoma
  GI50: 1.69 µM
  TGI: 3.7 µM
UACC-62 melanoma
  GI50: 1.56 µM
  TGI: 3.67 µM
HOP-62 NSCLC
  GI50: 9.72 µM
  TGI: 23.4 µM
SN12C renal
  GI50: 1.68 µM
  TGI: 4.64 µM
A498 renal
  GI50: 12.6 µM
  TGI: 26.3 µM
HS 578T breast
  GI50: 4.35 µM
  TGI: 27.1 µM
SK-MEL-2 melanoma
  GI50: 4.11 µM
  TGI: 15.5 µM
HCC-2998 colon
  GI50: 2.78 µM
  TGI: 8.97 µM
LOX IMVI melanoma
  GI50: 1.05 µM
  TGI: 2.43 µM
NCI-H522 lung
  GI50: 1.21 µM
  TGI: 2.65 µM
MOLT-4 leukemia
  GI50: 1.71 µM
  TGI: 5.97 µM
MDA-MB-231 breast
  GI50: 1.64 µM
  TGI: 3.34 µM
OVCAR-5 ovarian
  GI50: 2.59 µM
  TGI: 6.14 µM
OVCAR-8 ovarian
  GI50: 2.67 µM
  TGI: 12.3 µM

From PubChem BioAssay (NCI)
